In US7266458B2, “BioMAP analysis” (Bioseek, Inc., priority 2000, dated 2007):

Experiments:
[1] = test system: human umbilical vein endothelial cells (HUVEC); assay: Optimized inflammatory assay combination (IL-1+TNF-α+IFN-γ) with added agents, cell-based ELISA biomap; conditions: for reference biomaps compared by pattern similarity and cluster analysis: hierarchical clustering, FIG. 4C; for biomap in the optimized assay combination: 10 μM NHGA, 200 YM PDTC, 9 μM PD098059, 125-500 μM ibuprofen, TNF-α+IFN-γ+IL-1, 24 hours
Procedure: After 24 hours, cultures are washed and evaluated for the cell surface expression of ICAM-1 (1), VCAM-1 (2), E-selectin (3), IL-8 (4), CD31 (5), HLA-DR (6) and MIG (7) by cell-based ELISA performed as described above.
Confluent cultures of HUVEC cells are treated with TNF-α (5 ng/ml)+IFN-γ (100 ng/ml)+IL-1 (1 ng/ml) in the presence or absence of agents or buffers at the concentrations indicated in Table 1. Compounds are obtained from commercial sources and prepared in a suitable buffer (water, base media, DMSO, methanol or ethanol). After 24 hours, cultures are washed and evaluated for the cell surface expression of ICAM-1 (1), VCAM-1 (2), E-selectin (3), IL-8 (4), CD31 (5), HLA-DR (6) and MIG (7) by cell-based ELISA performed as described above. A color-coded representation of the resulting biomaps developed from the data is shown. […] Control assay combinations for each agent include an appropriate concentration of the diluent buffer.
Readout patterns are analyzed by hierarchical clustering techniques, and are visualized as a tree diagram in which a) each terminal branch point represents the readout pattern from one assay combination in one experiment; b) the length of the vertical distance from the upper horizontal line (no change and control patterns) to the termini are related to the extent of difference in the readout pattern from the control environment pattern; and c) the distance along, the branches from one terminal pattern value to another reflects the extent of difference between them. Similar patterns are thus clustered together.

[2] = test system: human umbilical vein endothelial cells (HUVEC); assay: Apoptosis assay panel (ceramide, TNF-α) with LDH release and cell-based ELISA; conditions: factor added to endothelial cell cultures, vs basal conditions
Text: A panel of assay combinations that reproduces aspects of the response of the endothelial cells to inflammatory processes and stimuli enhancing apoptosis is used.
Retroviral vectors derived from the MSCV-based pMSCVneo vector (Clontech) are used to express genes in the cultured endothelial cells. […] Test genes are inserted downstream of the MSCV LTR, the marker gene is the enhanced green fluorescent protein (GFP) and the IRES is 600 bp fragment from EMCV virus (Jang, J. Virol. 63:1651, 1989). […] Retroviral vector plasmid DNA is transfected into AmphoPack-293 cells (Clontech) by modified calcium phosphate method according to manufacturer's protocol (MBS transfection kit, Stratagene). Cell supernatants are harvested 48 hours post-transfection, filtered to remove cell debris (0.45 pm) and transferred onto exponentially growing HUVEC cells. DEAE dextran (conc lopg/ml) is added to facilitate vector transduction. After a 5-8 hour incubation period viral supernatants are removed and cells cultured for an additional 40 hours. Gene transfer efficiency is determined by FACS, and is typically ≧80 percent. […] After 24 hours, transduced cells are evaluated for the surface expression ICAM-1 (1), VCAM-1 (2), and MIG (3) by cell-based ELISA for biomap analysis. For the expanded biomap, cell supernatants at 24 hours are collected and analyzed for the presence of LDH (4).

[3] = test system: human umbilical vein endothelial cells (HUVEC); assay: Multiplex assay combinations for distinguishing mechanism of action (single cytokines, activating anti-p55); format: cell-based; conditions: 20 μM AA861, 10 μM NHGA
Procedure: Confluent cultures of HUVEC cells are treated with TNF-α (5 ng/ml), IFN-γ (100 ng/ml), IL-1 (20 ng/ml), the combination of TNF-α+IFN-γ+IL-1, or media (no cytokine) in the presence or absence of neutralizing anti-TNF-α, 20 μM AA861 or 10 μM NHGA. After 24 hours, cultures are washed and evaluated for the cell surface expression of ICAM-1 (1), VCAM-1 (2), E-selectin (3), IL-8 (4), and MIG (5) by cell-based ELISA performed as described in Example 1. A graphical representation of the resulting biomaps derived from the data is shown in FIG. 5, coded as described above.
Confirmation is performed by evaluating the test agent in assay combinations that include both physiologic and alternative pathway activators. Confluent cultures of HUVEC cells are treated with TNF-α (5 ng/ml), IL-1 (20 ng/ml), an activating antibody against the TNF-α receptor p55, or media. After 24 hours, cultures are washed and evaluated for the cell surface expression of ICAM-1 (1), VCAM-1 (2), E-selectin (3), CD31 (4), and MIG (5) by cell-based ELISA performed as described above. A graphical representation of the resulting biomap, prepared from the data is shown in FIG. 6, coded as described above.

[4] = test system: human umbilical vein endothelial cells (HUVEC); format: cell-based; parameters: key: Active BioMap profiles (indicated as “yes”) were significantly different from the profile obtained with the control vector; BioMAP profiles that were not different from control vector are indicated as “—”; conditions: NFkB Pathway genes; TNF-alpha, IL-1, IFN-gamma individually or in combination; vs control vector, p < 0.05, n = 3
Procedure: High-titer retrovirus preparations are generated by transient transfection of vector construct into a retroviral packaging cell line (AmphoPack-293;Clontech). […] Expression of BioMAP markers (ICAM-1, VCAM, etc.) is measured by a cell-based ELISA technique (Melrose, 1998, supra) that has been optimized such that changes in expression levels of >20% can be routinely detected as statistically significant effects (p<0.05). […] Cells were stained with the NGFr specific monoclonal antibody (Chemicon).
In the lower two panels IFN-gamma was added to all samples. Average values (ELISA OD) from triplicate samples are shown, error bars indicate standard deviation. Control is HUVEC transduced with the “empty” vector, which only encodes NGFr marker. Data are from a representative experiment. Results were reproduced in at least two experiments with HUVEC cells from different donors.
Gene over-expression vectors were generated for many members of the NFκB and Jak/STAT pathways, and measured BioMAP profiles in transduced HUVEC cells by a cell-based ELISA technique (Melrose, 1998, supra), in the presence of TNF-alpha, IL-1, IFN-gamma, individually or in combination. […] Average values (ELISA OD) from triplicate samples are shown. Control (_-_) is HUVEC transduced with the “empty” retroviral vector, which only encodes NGFr marker. Data shown are from a representative experiment.

[5] = test system: human umbilical vein endothelial cells (HUVEC); assay: Morpholino antisense in HUVEC, cell surface expression by flow cytometry; format: cell-based
Text: Morpholino phosphorodiamidate (MF) antisense oligonucleotides are used. Other chemical classes of antisense oligonucleotides that can be substituted for morpholinos include but are not limited to phosphorotioate oligonucleotides, N3′-P5′ phosphoramidate oligonucleotides (NP), locked nucleic acid (LNA), 2′-O-methoxyethyl nucleic acid (MOE), 2′-fluoro-arabinonucleic acid (FANA), peptide nucleic acids (PNA) (reviewed in Toulme, Nature Biotech. 19:17, 2001); siRNA (Elbashir et al. (2000) Nature 411:494-498); ribozymes (Kawasaki et al. (2002) Nat. Biotech 20:376-380); standard antisense (Veres et al. (1998) J. Virol. 72:1894-1901). In the present example, antisense oligonucleotides for TNF-R1 (p55) (5′-[…]-3′)(SEQ ID NO:1), and the beta-globin control oligo (5′-[…]-3′)(SEQ ID NO:2) (Gene Tools Inc.) are used. The transfection mixture is prepared by mixing […] of 200 mM EPEI (Ethoxylated PolyEthylenlmine), vortexed, incubated at room temperature for 20 minutes, and then mixed with 3.5 ml of serum-free media to give a final 0.6 μM morpholino concentration.
HUVEC cells are plated the day before in 24-well plates at 4-6×10e4 cells/well. Cells are washed once with serum-free media and incubated with 0.4 ml of the morpholino transfection mixture at 37° C. for 3 hours. Morpholino is removed, regular media ([…] Growth Media with 2% fetal calf serum, Clonetics) is added and cells allowed to recover overnight. The efficiency of loading of cells with morphino is monitored in cells incubated with a fluorescent morpholino, and is typically essentially 100 percent. HUVEC cells are then treated with either TNF-α (0.5 ng/ml), or IL-1 (1 ng/ml), or media only. After 4 hours, cells are harvested and evaluated for the cell surface expression of ICAM-1 (1), VCAM-1 (2), E-selectin (3), and CD31 (4) by flow cytometry. […] The TNF-R1 antisense specifically blocks induction of ICAM-1 and VCAM-1 by TNF-α, while it has no effect on induction of the same markers by the independent cell surface receptor for IL-1.

[6] = test system: human umbilical vein endothelial cells (HUVEC); assay: HUVEC treated with proinflammatory cytokines, readout parameters by cell-based ELISA; conditions: HUVEC cultured with cytokine(s) 24 hours, vs basal medium
Procedure: Primary human umbilical vein endothelial cells (HUVEC) are used. […] 2×10^4 cells/ml are cultured to confluence in EGM-2 (Clonetics).
After 24 hours, cultures are washed and evaluated for the presence of the parameters ICAM-1 (1), VCAM-1 (2), E-selectin (3), IL-8 (4), CD31 (5), HLA-DR (6) and MIG (7) by cell-based ELISA as described (Melrose, J. Immunol. 161:2457, 1998). For this, plates are blocked with 1% Blotto for 1 hr, and treated with primary antibodies (obtained from Pharmingen and Becton Dickinson) at 1 ng/ml for 2 hr. After washing, secondary peroxidase-conjugated anti-mouse IgG antibody (Promega) at 1:2500 is applied for 45 min. After washing, TMB substrate (Kierkegaard & Perry) is added and color developed. Development is stopped by addition of H2SO4 and the absorbance at 450 nm (subtracting the background absorbance at 600 nm) is read with a Molecular Dynamics plate reader. The relative expression levels of each parameter are indicated by the OD at 450 nm shown along the y-axis. The mean +/−SD from triplicate samples is shown.
After 24 hours, cultures are washed and evaluated for the presence of the parameters ICAM-1 (1), VCAM-1 (2), E-selectin (3), IL-8 (4), CD31 (5), HLA-DR (6) and MIG (7) by cell-based ELISA performed as described above, and are reported as the OD at 450 nm. The mean +/−SD from triplicate samples are shown. * indicates p<0.05 comparing results obtained with the two separate conditions.

[7] = 0.6 μM morpholino, IL-1 1 ng/ml, 4 hours
[8] = 0.6 μM morpholino, TNF-α 0.5 ng/ml, 4 hours

Molecule: O=c1cc(-c2ccc(O)cc2)oc2cc(O)cc(O)c12 [apigenin]
- reference biomaps compared by pattern similarity and cluster analysis [1]: have similar reference biomaps and cluster together

Molecule: ceramide
- cell damage as release of cytoplasmic lactate dehydrogenase into the supernatant [2]: enhanced

Molecule: S=C(S)N1CCCC1 [PDTC, pyrrolidine dithiocarbamate]
- biomap in the optimized assay combination [1]: altered biomaps
- reference biomaps compared by pattern similarity and cluster analysis [1]: have similar reference biomaps and cluster together

Molecule: CC(Cc1ccc(O)c(O)c1)C(C)Cc1ccc(O)c(O)c1 (stereo not drawn) [NHGA, nordihydroguaiaretic acid]
- cytokine signaling pathways targeted in the panel [3]: target multiple cytokine signaling pathways
- biomap in the optimized assay combination [1]: altered biomaps
- reference biomaps compared by pattern similarity and cluster analysis [1]: have similar reference biomaps and cluster together

Molecule: TNFA
- BioMAP readout [4]: yes

Molecule: O=C(NC1=CC(=O)c2ccccc2C1=O)c1ccccc1 [PPM-18]
- reference biomaps compared by pattern similarity and cluster analysis [1]: have similar reference biomaps and cluster together

Molecule: CC(C)Cc1ccc(C(C)C(=O)O)cc1 (stereo not drawn) [ibuprofen]
- biomap in the optimized assay combination [1]: visually different representations of biomaps

Molecule: TNF-R1 antisense: morpholino antisense oligonucleotide for TNF-R1 (p55), 5′-AGGTCAGGCACGGTGGAGAGGC-3′ (SEQ ID NO:1) (all phosphorodiamidate morpholino (PMO))
- biomap vs control oligo biomap upon treatment with TNF-α [5]: altered biomap
- induction of ICAM-1 by IL-1 [5, 7]: no effect
- induction of VCAM-1 by IL-1 [5, 7]: no effect
- induction of ICAM-1 by TNF-α [5, 8]: blocks
- induction of VCAM-1 by TNF-α [5, 8]: blocks

Molecule: COc1cccc(-c2cc(=O)c3ccccc3o2)c1N [PD098059]
- biomap in the optimized assay combination [1]: altered biomaps
- reference biomaps compared by pattern similarity and cluster analysis [1]: remain in the same cluster

Molecule: C[C@]12C=CC(=O)C=C1CC[C@@H]1[C@@H]2[C@@H](O)C[C@@]2(C)[C@H]1CC[C@]2(O)C(=O)CO [prednisolone]
- reference biomaps compared by pattern similarity and cluster analysis [1]: related reference biomaps that are distinct from those of NFκB pathway inhibitors

B1: IFN-γ: cytokine added to HUVEC (protein)
chain: QDPYVKEAENLKKYFNAGHSDVADNGTLFLGILKNWKEESDRKIMQSQIVSFYFKLFKNFKDDQSIQKSVETIKEDMNVKFFNSNKKKRDDFEKLTNYSVTDLNVQRKAIHELIQVMAELSPAAKTGKRKRSQMLFRGRRASQ
- ICAM-1 level ([6]; TNF-α 5 ng/ml, IFN-γ 100 ng/ml, IL-1 1 ng/ml): increased
- HLA-DR level [6]: increased
- MIG level [6]: increased
